The source of these data is patent publication US20250177382A1, “NEK7 INHIBITORS” (Halia Therapeutics, Inc., priority 2021, published 2025).

The assay deals with T1, full-length recombinant human NEK7 (Homo sapiens, UniProt Q8TDX7).
T1 construct: full-length recombinant human NEK7; GST (N); purchased SignalChem N09-10G; host or cells: Sf9 insect cells (baculovirus)
T1 sequence (Q8TDX7 whole entry): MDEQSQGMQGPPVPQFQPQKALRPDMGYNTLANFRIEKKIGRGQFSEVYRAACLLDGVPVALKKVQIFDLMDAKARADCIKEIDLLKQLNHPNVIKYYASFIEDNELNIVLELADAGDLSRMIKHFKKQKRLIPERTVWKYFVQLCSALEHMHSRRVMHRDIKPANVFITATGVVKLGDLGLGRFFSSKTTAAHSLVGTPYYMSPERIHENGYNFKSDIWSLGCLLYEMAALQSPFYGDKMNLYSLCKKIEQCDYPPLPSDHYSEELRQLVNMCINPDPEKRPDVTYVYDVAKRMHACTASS
The assay can be described thus: NEK7 enzymatic assay. It counts as biochemical. The conditions noted are these: casein substrate, [32P]-ATP, radiometric P81 filter assay. The procedure:
Casein substrate (from bovine milk, hydrolyzed and partially dephosphorylated mixture of α, β, and κ caseins, obtained from Sigma Aldrich, catalogue #C4765, diluted in distilled water to a final concentration of 1 mg/mL, assay concentration 20 μM) and full-length recombinant human NEK7 (expressed by baculovirus in Sf9 insect cells using a N-terminal GST tag, obtained from SignalChem, catalogue #N09-10G, […], assay concentration 70 nM) were mixed in assay buffer (20 mM Hepes pH 7.5, 10 mM MgCl2, 1 mM EGTA, 0.02% Brij35, 0.02 mg/mL BSA, 0.1 mM […], 2 mM DTT, 1% DMSO). Compounds of interest (in DMSO, serial 3-fold dilution from 10 μM to 0.5 nM) or control (1% DMSO) were dispensed into the kinase reaction mixture by Acoustic technology (Echo550; nanoliter range). After incubation at room temperature for 20 minutes, the kinase reaction was initiated by addition of [^32P]-ATP (Specific activity 10 μUCi/μl) and the mixture was incubated at room temperature for 2 hours. The reaction was then stopped by spotting the reaction mixture on strips of phosphocellulose P81 paper. Following washing, the radioactivity of the P81 paper was measured and kinase activity data were expressed as the percent remaining kinase activity in test samples compared to vehicle (dimethyl sulfoxide) reactions. IC50 values and curve fits were obtained using Prism (GraphPad Software).
Representative compounds were tested for inhibitory activity against NEK7 and IL-1β release according to the procedures described above.
Turning to `CN1C[C@@H]2CN(Cc3ccc(NC(=O)Nc4ccc(Oc5ccnc6[nH]cc(Cl)c56)cc4F)cc3C(F)(F)F)C[C@@H]2C1` [Example I-15, 1-(4-((3-chloro-1H-pyrrolo[2,3-b]pyridin-4-yl)oxy)-2-fluorophenyl)-3-(4-(((3aR,6aS)-5-methylhexahydropyrrolo[3,4-c]pyrrol-2(1H)-yl)methyl)-3-(trifluoromethyl)phenyl)urea], the IC50 (as a rule, the concentration needed to halve the response being measured) was 200 to 500 nM.
With `CN1CCN(Cc2ccc(NC(=O)Nc3ccc(Oc4ccnc5[nH]cc(Cl)c45)cc3F)cc2C(F)(F)F)C2(CC2)C1` [Example I-20, 1-(4-((3-chloro-1H-pyrrolo[2,3-b]pyridin-4-yl)oxy)-2-fluorophenyl)-3-(4-((7-methyl-4,7-diazaspiro[2.5]octan-4-yl)methyl)-3-(trifluoromethyl)phenyl)urea], the IC50 is greater than 2000 nM.
As for `CN1CCN(Cc2ccc(NC(=O)Nc3ccc(Oc4ccnc5[nH]cc(Cl)c45)cc3F)cc2C2CC2)CC1` [Example I-26, 1-(4-((3-chloro-1H-pyrrolo[2,3-b]pyridin-4-yl)oxy)-2-fluorophenyl)-3-(3-cyclopropyl-4-((4-methylpiperazin-1-yl)methyl)phenyl)urea], the figure is 500 to 2000 nM; as for `CN1CCN(Cc2ccc(NC(=O)Nc3ccc(Oc4ccnc5[nH]cc(Cl)c45)cc3F)cc2Cl)CC1` [Example I-30, 1-(4-((3-chloro-1H-pyrrolo[2,3-b]pyridin-4-yl)oxy)-2-fluorophenyl)-3-(3-chloro-4-((4-methylpiperazin-1-yl)methyl)phenyl)urea], 500 to 2000 nM; as for `Cc1cn(-c2ccc(NC(=O)Nc3ccc(Oc4ccnc5[nH]cc(Cl)c45)cc3F)cc2C(F)(F)F)cn1` [Example I-32, 1-(4-((3-chloro-1H-pyrrolo[2,3-b]pyridin-4-yl)oxy)-2-fluorophenyl)-3-(4-(4-methyl-1H-imidazol-1-yl)-3-(trifluoromethyl)phenyl)urea], greater than 2000 nM.
As for `CN1CCCN(Cc2ccc(NC(=O)Nc3ccc(Oc4ccnc5[nH]cc(Cl)c45)cc3F)cc2C(F)(F)F)CC1` [Example I-33, 1-(4-((3-chloro-1H-pyrrolo[2,3-b]pyridin-4-yl)oxy)-2-fluorophenyl)-3-(4-((4-methyl-1,4-diazepan-1-yl)methyl)-3-(trifluoromethyl)phenyl)urea], the figure is 500 to 2000 nM.
As for `CN1CCN(Cc2ncc(NC(=O)Nc3ccc(Oc4ccnc5[nH]cc(Cl)c45)cc3F)cc2C(F)(F)F)CC1` [Example I-46, 1-(4-((3-chloro-1H-pyrrolo[2,3-b]pyridin-4-yl)oxy)-2-fluorophenyl)-3-(6-((4-methylpiperazin-1-yl)methyl)-5-(trifluoromethyl)pyridin-3-yl)urea], the IC50 lay in the range of 500 to 2000 nM.
With `O=C(Nc1ccc(CN2CCC(F)(F)CC2)c(C(F)(F)F)c1)Nc1ccc(Oc2ccnc3[nH]cc(Cl)c23)cc1F` [Example I-47, 1-(4-((3-chloro-1H-pyrrolo[2,3-b]pyridin-4-yl)oxy)-2-fluorophenyl)-3-(4-((4,4-difluoropiperidin-1-yl)methyl)-3-(trifluoromethyl)phenyl)urea] the figure was greater than 2000 nM.
As to `O=C(Nc1ccc(OC2CCN(C3COC3)CC2)c(C(F)(F)F)c1)Nc1ccc(Oc2ccnc3[nH]cc(Cl)c23)cc1F` [Example I-48, 1-(4-((3-chloro-1H-pyrrolo[2,3-b]pyridin-4-yl)oxy)-2-fluorophenyl)-3-(4-((1-(oxetan-3-yl)piperidin-4-yl)oxy)-3-(trifluoromethyl)phenyl)urea], the IC50 was greater than 2000 nM.
With `CC(=O)N1CCN(Cc2ccc(NC(=O)Nc3ccc(Oc4ccnc5[nH]cc(Cl)c45)cc3F)cc2C(F)(F)F)CC1` [Example I-49, 1-(4-((4-acetylpiperazin-1-yl)methyl)-3-(trifluoromethyl)phenyl)-3-(4-((3-chloro-1H-pyrrolo[2,3-b]pyridin-4-yl)oxy)-2-fluorophenyl)urea] the figure was greater than 2000 nM; with `O=C(Nc1ccc(CN2CCN(CCF)CC2)c(C(F)(F)F)c1)Nc1ccc(Oc2ccnc3[nH]cc(Cl)c23)cc1F` [Example I-50, 1-(4-((3-chloro-1H-pyrrolo[2,3-b]pyridin-4-yl)oxy)-2-fluorophenyl)-3-(4-((4-(2-fluoroethyl)piperazin-1-yl)methyl)-3-(trifluoromethyl)phenyl)urea], 500 to 2000 nM; with `O=C(Nc1ccc(CN2CCNCC2)c(C(F)(F)F)c1)Nc1ccc(Oc2ccnc3[nH]cc(Cl)c23)cc1F` [Example I-55, 1-(4-((3-chloro-1H-pyrrolo[2,3-b]pyridin-4-yl)oxy)-2-fluorophenyl)-3-(4-(piperazin-1-ylmethyl)-3-(trifluoromethyl)phenyl)urea], 200 to 500 nM.
As for `CN(C)C1CCN(Cc2ccc(NC(=O)Nc3ccc(Oc4ccnc5[nH]cc(Cl)c45)cc3F)cc2C(F)(F)F)CC1` [Example I-57, 1-(4-((3-chloro-1H-pyrrolo[2,3-b]pyridin-4-yl)oxy)-2-fluorophenyl)-3-(4-((4-(dimethylamino)piperidin-1-yl)methyl)-3-(trifluoromethyl)phenyl)urea], the figure is greater than 2000 nM.
As for `CN1CCN(Cc2ccc(NC(=O)Nc3ccc(Oc4ccnc5[nH]cc(Cl)c45)cc3F)cc2C(F)(F)F)CC12CC2` [Example I-60, 1-(4-((3-chloro-1H-pyrrolo[2,3-b]pyridin-4-yl)oxy)-2-fluorophenyl)-3-(4-((4-methyl-4,7-diazaspiro[2.5]octan-7-yl)methyl)-3-(trifluoromethyl)phenyl)urea], the figure is greater than 2000 nM; as for `Cc1c[nH]c2nccc(Oc3ccc(NC(=O)Nc4cnc(OC5CCN(C)CC5)c(C(F)(F)F)c4)c(F)c3)c12` [Example I-61, 1-(2-fluoro-4-((3-methyl-1H-pyrrolo[2,3-b]pyridin-4-yl)oxy)phenyl)-3-(6-((1-methylpiperidin-4-yl)oxy)-5-(trifluoromethyl)pyridin-3-yl)urea], less than 200 nM; as for `CN1CCN(Cc2ccc(NC(=O)Nc3ccc(Oc4ccnc5[nH]cc(Cl)c45)cc3F)cc2OC(F)(F)F)CC1` [Example I-62, 1-(4-((3-chloro-1H-pyrrolo[2,3-b]pyridin-4-yl)oxy)-2-fluorophenyl)-3-(4-((4-methylpiperazin-1-yl)methyl)-3-(trifluoromethoxy)phenyl)urea], less than 200 nM.
On to `Cc1c[nH]c2nccc(Oc3ccc(NC(=O)Nc4ccc(OC5CCN(C)CC5)c(C(F)(F)F)c4)c(F)c3)c12` [Example I-63, 1-(2-fluoro-4-((3-methyl-1H-pyrrolo[2,3-b]pyridin-4-yl)oxy)phenyl)-3-(4-((1-methylpiperidin-4-yl)oxy)-3-(trifluoromethyl)phenyl)urea], for which the IC50 was less than 200 nM.
`CCN1CCC(Oc2ccc(NC(=O)Nc3ccc(Oc4ccnc5[nH]cc(Cl)c45)cc3F)cc2C(F)(F)F)CC1` [Example I-64, 1-(4-((3-chloro-1H-pyrrolo[2,3-b]pyridin-4-yl)oxy)-2-fluorophenyl)-3-(4-((1-ethylpiperidin-4-yl)oxy)-3-(trifluoromethyl)phenyl)urea]: the IC50 is less than 200 nM.
With `CN1CCN(Cc2cc(NC(=O)Nc3ccc(Oc4ccnc5[nH]cc(Cl)c45)cc3F)cc(C(F)(F)F)c2)CC1` [Example I-65, 1-(4-((3-chloro-1H-pyrrolo[2,3-b]pyridin-4-yl)oxy)-2-fluorophenyl)-3-(3-((4-methylpiperazin-1-yl)methyl)-5-(trifluoromethyl)phenyl)urea] the figure was 500 to 2000 nM; with `CN1CCC(Oc2ccc(NC(=O)Nc3ccc(Oc4ccnc5[nH]cc(Cl)c45)cc3F)cc2C(F)(F)F)C(F)C1` (stereo not drawn) [Example I-66, 1-(4-((3-chloro-1H-pyrrolo[2,3-b]pyridin-4-yl)oxy)-2-fluorophenyl)-3-(4-((3-fluoro-1-methylpiperidin-4-yl)oxy)-3-(trifluoromethyl)phenyl)urea], 500 to 2000 nM; with `CN1CCN(C2CC(F)(F)c3cc(NC(=O)Nc4ccc(Oc5ccnc6[nH]cc(Cl)c56)cc4F)ccc32)CC1` (stereo not drawn) [Example I-67, 1-(4-((3-chloro-1H-pyrrolo[2,3-b]pyridin-4-yl)oxy)-2-fluorophenyl)-3-(3,3-difluoro-1-(4-methylpiperazin-1-yl)-2,3-dihydro-1H-inden-5-yl)urea], greater than 2000 nM.
